{"source": "patent US20260069693A1", "about": "“UROLITHINS AND T-CELL MEDIATED IMMUNE RESPONSE” (priority 2022, published 2026)", "key": {"[1]": {"system": "Splenic murine T cells", "assay": "aCD3/aCD28 stimulation of murine T cells in presence of UA, flow cytometry", "format": "cell-based", "protocol": "Mitochondrial remodelling has been previously associated with alterations in T cell fate (Buck et al., 2016; Yu et al., 2020b). Given the observed dependency of the UA effect on CD8^+ T cells, the inventors wondered whether UA may also directly affect T cell fate commitment. Purified T cells from FVB mice were stimulated with aCD3/aCD28 beads to induce T cell differentiation into effector T cell subsets in the presence or absence of UA for up to 72 hours (FIG. 2A). […] Previously, a rare naïve-like subset of T cells with enhanced stemness capabilities, termed T memory stem cells (TSCM) has been identified (Gattinoni et al., 2009). TSCM are marked by extreme longevity, their ability to self-renew, and potential for immune reconstitution (Gattinoni et al., 2017) which translates into potent anti-tumor immunity. Phenotypically, TSCM represent a subset of minimally differentiated T cells, which share a CD44^loCD62L^hi phenotype with naïve T cells, but are phenotypically distinct by expressing high levels of Sca1 (Gattinoni et al., 2009). […] This was associated with reduced cyclin D1 expression (not shown), in line with previous observations that link TSCM reprogramming to halted proliferation (Gattinoni et al., 2009; Verma et al., 2021).\nSplenic murine T cells were isolated from mice aged 6-20 weeks by negative selection with EasySep mouse T cell isolation kit (Stem cell) according to the manufacturer's instructions. To monitor T cell proliferation, purified T cells were loaded with CellTrace Violet (C34557 ThermoFisher Scientific). T cell activation was initiated using αCD3/CD28 activation beads (11456D; ThermoFisher Scientific) at a ratio of 25 μl dynabeads per 0.5×10^6 T-cells. Cells were activated with 25-50 μM Urolithin A (Tocris) or DMSO in T cell activation Medium (RPMI (ThermoFisher Scientific) 10% FBS (South America origin), 10 mM Hepes (Sigma), 1× Non-Essential Amino Acid, 1 mM Sodium Pyruvate, 50 μM B-Mercaptoethanol, 100 U/ml penicillin, 100 μg/ml streptomycin and 2 mM Glutamax (ThermoFisher Scientific) for the indicated durations. In selected experiments, cells were stimulated in the presence of inhibitors, namely TCF1i (ICG-001; SelleckChem; 10 μM) and PGC-1αi (SR-18292, Sigma-Aldrich; 10 μm,). For subsequent analysis, activating beads were magnetically removed prior antibody staining. For human T cells, peripheral blood mononuclear cells were purified with a Ficoll-Paque (GE healthcare) gradient. T cells were enriched with EasySep Human T Cell Isolation Kit (StemCell) and activated with dynabead Human T-Activator CD3/CD28 for T Cell Expansion and Activation Kit (11131D; ThermoFisher Scientific), similar to murine T cell stimulation. […]\nFor flow cytometric analysis of mitochondria and lysosomes 500 μl of Mitotracker Red (200 nM; ThermoFisher) or Lysotracker Red DND-99 (75 nM; ThermoFisher) were applied followed by surface staining. To study changes in mitochondrial membrane potential, Mitoprobe TMRM kit (ThermoFisher) was used according to the manufacturer's instructions. Cell proliferation was assessed by CellTrace Violet (Invitrogen, C34557) at a concentration of 5 μM according to manufacturer's instructions. For human samples, cells were stained as described above with Fixable Viability Dye-eF780, αCD95-BV421 (DX2; 562616), αCD62L-PE (DREG-56; 555544), αCCR7-AF700 (150503; 561143), αCD45RO-APC (UCHL; 559865), αCD45RA-FITC (HI100; 555488), αCD8-PE-CF594 (RPA-T8; 562282) and αCD4-BV786 (OKT4; 566806) from BD."}, "[2]": {"system": "Th1/Th17 cell infiltration", "conditions": "model of EAE; cited from earlier work"}, "[3]": {"conditions": "48 hours in presence of UA, prior to ACT"}, "[4]": {"conditions": "CD62L+CD44-CD8+ T cells, 48 h, UA 25 μM"}}, "data": [{"smiles": "O=c1oc2cc(O)ccc2c2ccc(O)cc12", "note": "[UA, Urolithin A]", "values": [{"measurement": "TSCM formation, dependence on T cell activation", "setting": "[1]", "value": "only formed in activated T cells"}, {"measurement": "cyclin D1 expression", "setting": "[1]", "value": "reduced"}, {"measurement": "lysosome formation in CD8+ T cells", "setting": "[1]; 6 h, UA 50 μM", "value": "enhanced"}, {"measurement": "loss of mitochondrial content in T cell subsets (TSCM, TCM and TEFF)", "setting": "[1]; 24 h", "value": "detected in all T cell subsets analyzed"}, {"measurement": "number of CD44-CD62L+Sca1hi TSCM", "setting": "[1]; 24 h, 48 h and 72 h after aCD3/aCD28 stimulation", "value": "significantly increased"}, {"measurement": "CD95 expression of CD8+ T cells from OT-1 donors", "setting": "[1]; [3]", "value": "enhanced"}, {"measurement": "TSCM phenotype of CD8+ T cells from OT-1 donors", "setting": "[1]; [3]", "value": "displayed a TSCM phenotype"}, {"measurement": "TSCM formation in CD4+ cells", "setting": "[1]; CD4+ cells", "value": "did not promote enhanced TSCM formation"}, {"measurement": "frequency of TEM cells in CD4+ cells", "setting": "[1]; CD4+ cells, later timepoints", "value": "enhanced frequency"}, {"measurement": "naïve-like CD4+ cells", "setting": "[1]; CD4+ cells, later timepoints", "value": "less"}, {"measurement": "CD95 expression of TSCM", "setting": "[1]; [4]", "value": "increased"}, {"measurement": "mitochondrial membrane potential of TSCM (TMRM)", "setting": "[1]; [4]", "value": "reduced"}, {"measurement": "CD8+ T cell division", "setting": "[1]; CellTrace Violet", "value": "restricted"}, {"measurement": "differentiation into effector T cells (Granzyme B, IFNg expression)", "setting": "[1]; T cells from FVB mice, aCD3/aCD28 beads, 48 h, UA vs DMSO", "value": "blocked"}, {"measurement": "central memory cells (TCM)", "setting": "[1]; aCD3/aCD28, up to 72 hours", "value": "reduction"}, {"measurement": "frequency of effector memory cells (TEM)", "setting": "[1]; aCD3/aCD28, up to 72 hours", "value": "remained unaltered"}, {"measurement": "naïve CD44loCD62Lhi T cells", "setting": "[1]; aCD3/aCD28, up to 72 hours", "value": "significant increase"}, {"measurement": "mitochondrial content (MitoTracker Red) in CD8+ T cells", "setting": "[1]; after 24 hours", "value": "loss of mitochondrial content in a dose-dependent manner"}, {"measurement": "T cell death in vitro", "setting": "[1]; in vitro", "value": "dose-dependent T cell death"}, {"measurement": "PGC-1 expression in CD8+ T cells", "setting": "[1]; prolonged UA administration in vitro, 48 h, 50 μM", "value": "marked upregulation"}, {"measurement": "mitochondrial membrane potential in CD8+ T cells", "setting": "[1]; within six hours, UA 50 μM", "value": "reduction"}, {"measurement": "Th1/Th17 cell infiltration", "setting": "[2]", "value": "blocking"}]}]}
